Test results reported in publication PMC12813973, “Consequences of Peptide Macrocyclization Revealed by Virus-Inspired β‑Hairpin Mimetics” (ACS Chemical Biology, 2025).
Like-named read-outs stand apart in the source and are kept apart here. *1 amine or outer side, *2 acyl side, *3 side chain or, on linkers, in order; H or OH if unused. Where a SMILES comes first, the peptide text is derived from it. Bridges are numbered along the chain shown (N, C = ends). [ ]: non-standard residue; d: D form. oXylylene = c1ccc(C[*:2])c(C[*:1])c1; βAla = NCCC(=O)O

Tests used:
[1] = biological target: Peptide 2 (head-to-tail monocyclic 018 11-30) none (wild-type side chains; added beta-Ala-beta-Ala linker); test: isothermal titration calorimetry (ITC); conditions: pH 8.0; 300 mM NaCl; 50 mM Tris pH 8.0 (TBST)
[2] = biological target: Peptide 4 (bicyclic: head-to-tail plus o-xylyl C15/C26 cross-link) residue 15 to Cys (native residue not given); K26C; both S-alkylated by the o-xylyl bridge; test: isothermal titration calorimetry (ITC); conditions: pH 8.0; 300 mM NaCl; 50 mM Tris pH 8.0 (TBST)
STAT1 [3] = biological target: T1, STAT1 (Homo sapiens, UniProt P42224); test: Grating-coupled interferometry (GCI) waveRAPID kinetics, immobilised full-length STAT1; type: binding; conditions: for kon at 0.5 µM / kd: analyte 0.5 µM; for kon at 0.5 µM: read-out: ka; for Kd: 20 mM HEPES pH 7.5, 300 mM NaCl, 0.01% Tween-20, 1:1 kinetic model, average of 2–4 technical replicates ± SD, SD
T1 construct: full-length STAT1 (Uniprot #P42224-1) was expressed in E. coli; His tag (pEXP-NHis vector) (N); made in house; host or cells: E. coli T7 Express
T1 sequence (P42224 1-750): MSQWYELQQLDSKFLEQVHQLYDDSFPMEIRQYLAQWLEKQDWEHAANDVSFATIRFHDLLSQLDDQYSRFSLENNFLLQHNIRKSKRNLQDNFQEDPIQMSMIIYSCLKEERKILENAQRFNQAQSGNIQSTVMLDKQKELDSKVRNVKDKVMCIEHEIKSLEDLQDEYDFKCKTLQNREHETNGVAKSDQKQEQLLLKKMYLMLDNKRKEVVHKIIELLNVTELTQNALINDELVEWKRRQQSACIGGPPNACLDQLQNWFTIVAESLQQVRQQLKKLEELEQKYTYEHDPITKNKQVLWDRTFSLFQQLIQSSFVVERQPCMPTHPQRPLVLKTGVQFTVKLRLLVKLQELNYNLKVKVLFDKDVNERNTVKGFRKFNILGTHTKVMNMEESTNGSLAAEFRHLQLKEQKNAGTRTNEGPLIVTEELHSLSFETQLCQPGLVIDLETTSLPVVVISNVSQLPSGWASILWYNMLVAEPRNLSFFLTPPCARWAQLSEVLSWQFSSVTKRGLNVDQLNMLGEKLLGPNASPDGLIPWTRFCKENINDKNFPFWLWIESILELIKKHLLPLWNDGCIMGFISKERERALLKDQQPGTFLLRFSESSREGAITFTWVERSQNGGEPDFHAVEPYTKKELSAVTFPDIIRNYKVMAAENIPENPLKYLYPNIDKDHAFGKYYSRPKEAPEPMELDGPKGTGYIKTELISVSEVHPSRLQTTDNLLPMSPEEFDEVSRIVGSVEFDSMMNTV
Description: Understanding the molecular determinants of kinetic rate constants of binding (k a, k d) can aid the design of pharmacological probes with longer target engagement, which is beneficial for drug efficacy and decreased toxicity. , We characterized the binding kinetics of 018-derived macrocycles by using grating-coupled interferometry (GCI). We used waveRAPID, a regeneration-free kinetic binding assay that applies sequential analyte pulses of increasing duration onto a GCI biosensor surface with an immobilized target (Figures A, and S3,S4, Table S2).
(§1) Grating coupled interferometry (GCI)
(§2) GCI experiments were performed on a Creoptix WaveDELTA instrument (Malvern Panalytical). Full-length STAT1 or STAT3 were immobilised on a 4PCH chip (Malvern Panalytical #4PCH-03) to a density 2000-8000 pg/mm2 using EDC/NHS activation followed by amine coupling. Briefly, proteins (500 nM) were applied onto an activated chip in 10 mM MES pH 6.5, 20 mM NaCl, after which the chip surface was passivated with 1M ethanolamine, pH 8.0.
(§3) The kinetic measurements were perfor med using 20 mM HEPES pH 7.5, 300 mM NaCl, 0.01% Tween-20, 0.0005% DMSO as running buffer. Peptides were tested at 0.5 or 10 μM concentration using the waveRAPID kinetics experiment with the tight binder or intermediate binder mode, respectively.[4] Sensorgrams were fitted in the waveControl software (Malven Panalytical) using the 1:1 kinetic model. […]

STAT1 [4] = biological target: T1, STAT1; test: Isothermal titration calorimetry (ITC) of peptide binding to STAT1; conditions: average of 2–3 technical replicates, read-out: KD (ITC, summary Fig 2B)
Procedure: To determine affinities and thermodynamic profiles of binding, we performed isothermal titration calorimetry (ITC) experiments for peptides 1, 2, 3, 4, 7, and 8 (Figures A,B and S1,S2, Table S1). […] The experiments were repeated in two different buffer systems, TBST (50 mM Tris pH 8.0, 300 mM NaCl, 0.01% Tween-20) and PBST ([…], 150 mM NaCl, 0.01% Tween-20), to account for possible buffer protonation enthalpy artifacts. […]
Isothermal titration calorimetry (ITC)
ITC experiments were performed using a PEAQ ITC instrument (Malvern Panalytical) in either TBST (50 mM Tris pH 8.0, 300 mM NaCl, 0.5 mM TCEP, 0.01% Tween -20) or PBST (10 mM sodium phosphate pH 7.4, 150 mM NaCl, 0.01% Tween -20) as reaction buffers. STAT1 protein was buffer -exchanged into reaction buffer supplemented with 2% DMSO on a NAP -5 deslating column (Cytiv a #17085301) and its concentration was adjusted to 10 or 20 μM.
Peptides were diluted in reaction buffer from DMSO stocks to a matching 2% DMSO concentration. Peptide concentrations were adjusted to approximately 100-200 μM. ITC experiments were performed with STAT1 in the cell and peptides in the syringe at 25°C, with 750 RPM stirring, DP = 4 μcal/sec. 18 injections of 2 μl were performed over a 50 min titration.
Thermogram integra tion and isotherm fitting were performed using the PEAQ ITC analysis software (Malvern Panalytical ). Isotherms were fitted using a 1:1 binding model. Due to challenges in determining peptide concentrations with high accuracy , protein concentrations and stoichiometry (N=1.0) were kept constant during isotherm fitting, whereas peptide concentrations were allowed to vary. Fixing a single reactant concentration during fitting is acceptable given the sufficiently high C -values and isotherm curvature observed in the […]
Offset subtraction was implemented to remove injection heats.

STAT1 [5] = biological target: T1, STAT1; test: Fluorescence polarization competition assay with fluorescein-labelled pIFNGR1 docking site peptide probe; type: binding; conditions: 10 nM fluorescein pIFNGR1 probe, STAT1 1.5 μM, 20 mM Tris pH 8.0, 300 mM NaCl, 0.1% Tween-20, 0.5 mM TCEP, 2.5% DMSO, room temperature; four parameter logistic fit; read-out: IC50 (FP competition, pIFNGR1 probe displacement)
STAT3 = biological target: T2, STAT3 (Homo sapiens, UniProt P40763); test: biochemical; type: binding; conditions: for Kd: full-length STAT3 on 4PCH chip, average of technical replicates ± SD (Fig 3E), SD, read-out: STAT3 KD (GCI waveRAPID); for kon: read-out: ka; for KD: analyte 10 µM (1, 3, 5) or 0.5 µM (4, 6), n.b. – no binding observed
T2 construct: STAT3: the gene encoding full-length STAT3 was codon optimised for expression in; MBP (pEXP-MBP vector) (cleaved yes); His tag (IMAC capture, removed with the fusion by TEV and reverse IMAC) (cleaved yes); made in house; host or cells: E. coli T7 Express
Procedure: In such PPIs, the bulk of the binding energy contribution typically stems from backbone interactions, whereas binding specificity is fine-tuned by side-chain contacts. […] We evaluated the binding kinetics of peptides to full-length STAT3 using GCI.
as §1, §2, §3
GCI sensorgrams depicting RAPID kinetics measurements and fitted kinetic models for peptide binding to full-length STAT3 immobilised on a polycarboxylate hydrogel chip (4PCH). Peptides were applied at 0.5 or 10 μM concentration using the medium or tight binders pulse sequence. The peptides that show negligible Rmax values at 10 μM analyte concentration were classified as non-binding.
(1 picture or pasted object on this page, not shown here)

[6] = Solubility as required for ITC titration; type: physicochemical; conditions: ITC needs approximately 100-200 μM peptide in reaction buffer with 2% DMSO
[7] = replicate 1 (first listed run, Table S2)
[8] = replicate 2 (second listed run, Table S2)
[9] = replicate 3 (third listed run, Table S2)
[10] = replicate 4 (fourth listed run, Table S2)

T2 sequence (P40763 whole entry, species assumed, the tested form may be a part): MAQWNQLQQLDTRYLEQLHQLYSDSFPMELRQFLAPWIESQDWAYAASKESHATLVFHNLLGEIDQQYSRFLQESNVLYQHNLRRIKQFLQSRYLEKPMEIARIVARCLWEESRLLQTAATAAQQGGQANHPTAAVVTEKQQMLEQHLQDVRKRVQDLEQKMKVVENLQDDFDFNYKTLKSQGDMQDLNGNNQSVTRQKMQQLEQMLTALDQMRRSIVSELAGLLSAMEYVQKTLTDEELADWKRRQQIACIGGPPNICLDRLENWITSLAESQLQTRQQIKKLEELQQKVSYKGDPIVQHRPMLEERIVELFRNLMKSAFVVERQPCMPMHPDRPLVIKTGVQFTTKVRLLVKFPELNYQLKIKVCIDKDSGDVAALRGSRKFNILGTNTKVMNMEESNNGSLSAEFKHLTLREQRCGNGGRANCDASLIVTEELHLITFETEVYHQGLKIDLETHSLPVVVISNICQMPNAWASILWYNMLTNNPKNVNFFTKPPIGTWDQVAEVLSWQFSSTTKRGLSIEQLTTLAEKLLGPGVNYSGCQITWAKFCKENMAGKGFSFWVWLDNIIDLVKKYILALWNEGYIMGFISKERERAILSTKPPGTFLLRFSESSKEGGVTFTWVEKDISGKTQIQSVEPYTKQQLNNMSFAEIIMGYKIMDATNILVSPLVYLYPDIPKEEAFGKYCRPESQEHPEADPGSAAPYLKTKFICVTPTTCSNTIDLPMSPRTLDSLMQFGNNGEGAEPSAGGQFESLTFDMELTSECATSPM

| Compound | KD [1] [µM] | KD [2] [µM] | kon at 0.5 µM (STAT1 [3]; [7]) [M⁻¹ s⁻¹] | kon at 0.5 µM (STAT1 [3]; [8]) [M⁻¹ s⁻¹] | kon at 0.5 µM (STAT1 [3]; [9]) [M⁻¹ s⁻¹] | kon at 0.5 µM (STAT1 [3]; [10]) [M⁻¹ s⁻¹] | Kd (STAT1 [4]; PBST pH 7.4 (NaPi, 150 mM NaCl, 0.01% Tween-20)) [µM] | Kd (STAT1 [4]; TBST pH 8.0) [µM] | IC50 (STAT1 [5]) [µM] | ka (STAT3) [M⁻¹ s⁻¹] | Kd (STAT3) [µM] | kon (STAT3) [M⁻¹ s⁻¹] | Kd (STAT1 [3]) [µM] | kd (STAT1 [3]; [7]) [s⁻¹] | kd (STAT1 [3]; [8]) [s⁻¹] | solubility (for ITC titration) [6] | KD (STAT3; [7]) | KD (STAT3; [8]) | STAT3 binding (GCI), in words (STAT3; full-length STAT3, negligible Rmax at 10 μM classified as non-binding) |
| --- | --- | --- | --- | --- | --- | --- | --- | --- | --- | --- | --- | --- | --- | --- | --- | --- | --- | --- | --- |
| STAT1 (signal transducer and activator of transcription 1), unphosphorylated not stated for the ITC sample | 0.33 ± 0.02 | 0.024 ± 0.015 |  |  |  |  |  |  |  |  |  |  |  |  |  |  |  |  |  |
| CC[C@H](C)[C@@H]1NC(=O)[C@@H]2CSCc3ccccc3CSC[C@H](NC(=O)CNC(=O)[C@H](CCCCN)NC(=O)[C@H](CC(N)=O)NC(=O)[C@H](CO)NC(=O)CNC(=O)[C@H](CC(=O)O)NC(=O)[C@H](Cc3c[nH]cn3)NC(=O)CNC(=O)[C@H](Cc3c[nH]cn3)NC1=O)C(=O)N[C@@H](CCCCN)C(=O)N[C@@H]([C@@H](C)O)C(=O)N[C@@H](Cc1ccc(O)cc1)C(=O)N[C@@H]([C@@H](C)O)C(=O)NCCC(=O)NCCC(=O)N[C@@H](CCSC)C(=O)N[C@@H](Cc1c[nH]c3ccccc13)C(=O)N[C@@H](CO)C(=O)N[C@@H](C(C)C)C(=O)N2 [Peptide 4] (cyclo(CIHGHDGSNKGCKTYT[βAla][βAla]MWSV); linker 1-12 via oXylylene) |  |  | 658000 | 594000 | 277000 | 865000 | 0.014 | 0.024 | 1.1 | 239000 | 0.248 ± 0.0106 | 257000 |  |  |  |  |  |  |  |
| CC[C@H](C)[C@H](NC(=O)[C@H](Cc1ccccc1)NC(=O)[C@@H](NC(=O)[C@H](CS)NC(=O)[C@H](Cc1c[nH]c2ccccc12)NC(=O)[C@H](CCSC)NC(C)=O)C(C)C)C(=O)N[C@@H](Cc1c[nH]cn1)C(=O)NCC(=O)N[C@@H](Cc1c[nH]cn1)C(=O)N[C@@H](CC(=O)O)C(=O)NCC(=O)N[C@@H](CO)C(=O)N[C@@H](CC(N)=O)C(=O)N[C@@H](CCCCN)C(=O)NCC(=O)N[C@@H](CO)C(=O)N[C@@H](CCCCN)C(=O)N[C@@H](CS)C(=O)N[C@@H](Cc1ccc(O)cc1)C(=O)N[C@H](C(N)=O)[C@@H](C)O [Peptide 5] |  |  | 351000 | 457000 |  |  |  |  |  |  |  |  | 0.0319 ± 0.0043 | 0.0123 | 0.0132 | insufficient solubility | n.b. | n.b. | not detected |
| CC[C@H](C)[C@@H]1NC(=O)[C@H](Cc2ccccc2)NC(=O)[C@H](C(C)C)NC(=O)[C@@H](NC(=O)[C@H](Cc2c[nH]c3ccccc23)NC(=O)[C@H](CCSC)NC(C)=O)CSCc2ccccc2CSC[C@@H](C(=O)N[C@@H](Cc2ccc(O)cc2)C(=O)N[C@H](C(N)=O)[C@@H](C)O)NC(=O)[C@H](CCCCN)NC(=O)[C@H](CO)NC(=O)CNC(=O)[C@H](CCCCN)NC(=O)[C@H](CC(N)=O)NC(=O)[C@H](CO)NC(=O)CNC(=O)[C@H](CC(=O)O)NC(=O)[C@H](Cc2c[nH]cn2)NC(=O)CNC(=O)[C@H](Cc2c[nH]cn2)NC1=O [Peptide 6] |  |  | 377000 | 304000 | 186000 | 384000 |  |  |  | 280000 | 0.196 ± 0.012 | 252000 | 0.0013 ± 0.0011 |  |  | insufficient solubility |  |  |  |
